Molecular target: Human Factor D (Homo sapiens (Human), UniProt P00746)
Test: Human Factor D Assay
Assay type: biochemical
Conditions: Table 3; Human Factor D 80 nM, substrate Z-L-Lys-SBzl; read-out: IC50 (Stars)
In short: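 Thioesterase activity monitored with Z-L-Lys-SBzl plus Ellman's reagent (DTNB), each 100 μM final, after 5 min room-temperature compound preincubation of 80 nM human serum Factor D in pH 7.5 Tris (50 mM)/1M NaCl.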

Chain of Human Factor D (P00746 26-253): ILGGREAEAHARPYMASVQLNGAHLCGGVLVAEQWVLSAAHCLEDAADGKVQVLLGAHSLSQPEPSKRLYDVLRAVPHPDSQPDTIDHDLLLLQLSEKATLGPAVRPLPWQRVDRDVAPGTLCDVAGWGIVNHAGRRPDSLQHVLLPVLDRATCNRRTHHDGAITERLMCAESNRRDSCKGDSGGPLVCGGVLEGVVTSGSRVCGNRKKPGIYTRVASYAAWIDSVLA

`COc1cc(Br)nc(NC(=O)[C@@H]2C[C@H]3C[C@H]3N2C(=O)Cn2nc(C(C)=O)c3cc(-c4cnc(N)nc4)ccc32)c1` [Compound 434, (1R,3S,5R)-2-(2-(3-Acetyl-5-(2-aminopyrimidin-5-yl)-1H-indazol-1-yl)acetyl)-N-(6-bromo-4-methoxypyridin-2-yl)-2-azabicyclo[3.1.0]hexane-3-carboxamide] and `CC(=O)c1nn(CC(=O)N2[C@@H]3C[C@@H]3C[C@H]2C(=O)Nc2nc(Br)ccc2C)c2ccc(-c3cnc(N)nc3)cc12` [Compound 446, (1R,3S,5R)-2-(2-(3-Acetyl-5-(2-aminopyrimidin-5-yl)-1H-indazol-1-yl)acetyl)-N-(6-bromo-3-methylpyridin-2-yl)-2-azabicyclo[3.1.0]hexane-3-carboxamide] cannot be ordered by IC50: less than 1000 nM for the first, less than 1000 nM for the second.

`CC(=O)c1nn(CC(=O)N2C[C@H](F)C[C@H]2C(=O)Nc2nc(Br)ccc2C)c2ccc(-c3cnc(N)nc3)cc12` [Compound 435, (2S,4R)-1-(2-(3-Acetyl-5-(2-aminopyrimidin-5-yl)-1H-indazol-1-yl)acetyl)-N-(6-bromo-3-methylpyridin-2-yl)-4-fluoropyrrolidine-2-carboxamide] and `COc1ncc(-c2ccc3c(c2)c(C(C)=O)nn3CC(=O)N2C[C@H](F)C[C@H]2C(=O)Nc2nc(Br)ccc2C)cn1` [Compound 436, (2S,4R)-1-(2-(3-Acetyl-5-(2-methoxypyrimidin-5-yl)-1H-indazol-1-yl)acetyl)-N-(6-bromo-3-methylpyridin-2-yl)-4-fluoropyrrolidine-2-carboxamide] cannot be ordered by IC50: less than 1000 nM for the first, less than 1000 nM for the second.

`CC(=O)c1nn(CC(=O)N2C[C@H](F)C[C@H]2C(=O)Nc2cc(F)ncc2Br)c2ccc(-c3cnc(C)nc3)cc12` [Compound 438, (2S,4R)-1-(2-(3-Acetyl-5-(2-methylpyrimidin-5-yl)-1H-indazol-1-yl)acetyl)-N-(5-bromo-2-fluoropyridin-4-yl)-4-fluoropyrrolidine-2-carboxamide] and `CC(=O)c1nn(CC(=O)N2C[C@H](F)C[C@H]2C(=O)Nc2nc(Br)cs2)c2ccc(-c3cnc(C)nc3)cc12` [Compound 448, (2S,4R)-1-(2-(3-Acetyl-5-(2-methylpyrimidin-5-yl)-1H-indazol-1-yl)acetyl)-N-(4-bromothiazol-2-yl)-4-fluoropyrrolidine-2-carboxamide] cannot be ordered by IC50: less than 1000 nM for the first, less than 1000 nM for the second.

`CC(=O)c1nn(CC(=O)N2C[C@H](F)C[C@H]2C(=O)Nc2nn(C)c3ncccc23)c2ccc(-c3cnc(C)nc3)cc12` [Compound 439, (2S,4R)-1-(2-(3-Acetyl-5-(2-methylpyrimidin-5-yl)-1H-indazol-1-yl)acetyl)-4-fluoro-N-(1-methyl-1H-pyrazolo[3,4-b]pyridin-3-yl)pyrrolidine-2-carboxamide] and `CC(=O)c1nn(CC(=O)N2C[C@H](F)C[C@H]2C(=O)Nc2nc(Br)c(C)s2)c2ccc(-c3cnc(C)nc3)cc12` [Compound 449, (2S,4R)-1-(2-(3-Acetyl-5-(2-methylpyrimidin-5-yl)-1H-indazol-1-yl)acetyl)-N-(4-bromo-5-methylthiazol-2-yl)-4-fluoropyrrolidine-2-carboxamide] cannot be ordered by IC50: less than 1000 nM for the first, less than 1000 nM for the second.

`Cc1ncc(-c2ccc3c(c2)c(C(=O)CO)nn3CC(=O)N2C[C@H](F)C[C@H]2C(=O)Nc2cccc(Br)n2)cn1` [Compound 440, (2S,4R)—N-(6-bromopyridin-2-yl)-4-fluoro-1-(2-(3-(2-hydroxyacetyl)-5-(2-methylpyrimidin-5-yl)-1H-indazol-1-yl)acetyl)pyrrolidine-2-carboxamide] and `Cc1ncc(-c2ccc3c(c2)c(C(C)F)nn3CC(=O)N2C[C@H](F)C[C@H]2C(=O)Nc2cccc(Br)n2)cn1` (stereo partly drawn) [Compound 456, (2S,4R)—N-(6-Bromopyridin-2-yl)-4-fluoro-1-(2-(3-(1-fluoroethyl)-5-(2-methylpyrimidin-5-yl)-1H-indazol-1-yl)acetyl)pyrrolidine-2-carboxamide] cannot be ordered by IC50: less than 1000 nM for the first, less than 1000 nM for the second.

`CC(=O)c1cn(CC(=O)N2C[C@H](F)C[C@H]2C(=O)NCc2ccccc2)c2ccc(-c3cnc(C)nc3)cc12` [Compound 442, (2S,4R)-1-(2-(3-Acetyl-5-(2-methylpyrimidin-5-yl)-1H-indol-1-yl)acetyl)-N-benzyl-4-fluoropyrrolidine-2-carboxamide] and `CC(=O)c1cn(CC(=O)N2C[C@H](F)C[C@H]2C(=O)NCCc2ccccc2)c2ccc(-c3cnc(C)nc3)cc12` [Compound 443, (2S,4R)-1-(2-(3-Acetyl-5-(2-methylpyrimidin-5-yl)-1H-indol-1-yl)acetyl)-4-fluoro-N-phenethylpyrrolidine-2-carboxamide] cannot be ordered by IC50: less than 1000 nM for the first, less than 1000 nM for the second.

`CC(=O)c1cn(CC(=O)N2C[C@H](F)C[C@H]2C(=O)NCCCc2ccccc2)c2ccc(-c3cnc(C)nc3)cc12` [Compound 444, (2S,4R)-1-(2-(3-Acetyl-5-(2-methylpyrimidin-5-yl)-1H-indol-1-yl)acetyl)-4-fluoro-N-(3-phenylpropyl)pyrrolidine-2-carboxamide] and `CC(=O)c1cn(CC(=O)N2C[C@H](F)C[C@H]2C(=O)NCCCCc2ccccc2)c2ccc(-c3cnc(C)nc3)cc12` [Compound 461, (2S,4R)-1-(2-(3-Acetyl-5-(2-methylpyrimidin-5-yl)-1H-indol-1-yl)acetyl)-4-fluoro-N-(4-phenylbutyl)pyrrolidine-2-carboxamide] cannot be ordered by IC50: less than 1000 nM for the first, less than 1000 nM for the second.

`COc1ncc(-c2ccc3c(c2)c(C(C)=O)nn3CC(=O)N2[C@@H]3C[C@@H]3C[C@H]2C(=O)Nc2nc(Br)ccc2C)cn1` [Compound 445, (1R,3S,5R)-2-(2-(3-Acetyl-5-(2-methoxypyrimidin-5-yl)-1H-indazol-1-yl)acetyl)-N-(6-bromo-3-methylpyridin-2-yl)-2-azabicyclo[3.1.0]hexane-3-carboxamide] and `COc1ncc(-c2ccc3c(c2)c(C(C)=O)nn3CC(=O)N2[C@@H]3C[C@@H]3C[C@H]2C(=O)Nc2ccc(F)c(Br)n2)cn1` [Compound 457, (1R,3S,5R)-2-(2-(3-Acetyl-5-(2-methoxypyrimidin-5-yl)-1H-indazol-1-yl)acetyl)-N-(6-bromo-5-fluoropyridin-2-yl)-2-azabicyclo[3.1.0]hexane-3-carboxamide] cannot be ordered by IC50: less than 1000 nM for the first, less than 1000 nM for the second.

`CC(=O)c1nn(CC(=O)N2[C@@H]3C[C@@H]3C[C@H]2C(=O)Nc2ccc(F)c(Br)n2)c2ccc(-c3cnc(C)nc3)cc12` [Compound 447, (1R,3S,5R)-2-(2-(3-Acetyl-5-(2-methylpyrimidin-5-yl)-1H-indazol-1-yl)acetyl)-N-(6-bromo-5-fluoropyridin-2-yl)-2-azabicyclo[3.1.0]hexane-3-carboxamide] and `CC(=O)c1nn(CC(=O)N2[C@@H]3C[C@@H]3C[C@H]2C(=O)Nc2ccc(F)c(Br)n2)c2ccc(-c3cnc(N)nc3)cc12` [Compound 458, (1R,3S,5R)-2-(2-(3-Acetyl-5-(2-aminopyrimidin-5-yl)-1H-indazol-1-yl)acetyl)-N-(6-bromo-5-fluoropyridin-2-yl)-2-azabicyclo[3.1.0]hexane-3-carboxamide] cannot be ordered by IC50: less than 1000 nM for the first, less than 1000 nM for the second.

`COc1ncc(-c2ccc3c(c2)c(C(C)=O)nn3CC(=O)N2C[C@H](F)C[C@H]2C(=O)Nc2ccc(F)c(Br)n2)cn1` [Compound 450, (2S,4R)-1-(2-(3-Acetyl-5-(2-methoxypyrimidin-5-yl)-1H-indazol-1-yl)acetyl)-N-(6-bromo-5-fluoropyridin-2-yl)-4-fluoropyrrolidine-2-carboxamide] and `CC(=O)c1nn(CC(=O)N2C[C@H](F)C[C@H]2C(=O)Nc2ccc(F)c(Br)n2)c2ccc(-c3cnc(N)nc3)cc12` [Compound 451, (2S,4R)-1-(2-(3-Acetyl-5-(2-aminopyrimidin-5-yl)-1H-indazol-1-yl)acetyl)-N-(6-bromo-5-fluoropyridin-2-yl)-4-fluoropyrrolidine-2-carboxamide] cannot be ordered by IC50: less than 1000 nM for the first, less than 1000 nM for the second.

`CC(=O)O[C@H]1[C@@H](C(=O)Nc2cccc(Br)n2)N(C(=O)Cn2nc(C(C)=O)c3cc(-c4cnc(C)nc4)ccc32)C[C@@H]1F` [Compound 452, (2S,3S,4S)-1-(2-(3-Acetyl-5-(2-methylpyrimidin-5-yl)-1H-indazol-1 yl)acetyl)-2-((6-bromopyridin-2-yl)carbamoyl)-4-fluoropyrrolidin-3-yl acetate] and `CC(=O)c1nn(CC(=O)N2C3CC3(CN)C[C@H]2C(=O)Nc2cccc(Br)n2)c2ccc(-c3cnc(C)nc3)cc12` (stereo partly drawn) [Compound 454, (3S)-2-(2-(3-Acetyl-5-(2-methylpyrimidin-5-yl)-1H-indazol-1-yl)acetyl)-5-(aminomethyl)-N-(6-bromopyridin-2-yl)-2-azabicyclo[3.1.0]hexane-3-carboxamide] cannot be ordered by IC50: less than 1000 nM for the first, less than 1000 nM for the second.

First: CC(=O)c1nn(CC(=O)N2C[C@H](F)C[C@H]2C(=O)Nc2nc(-c3ccccc3Cl)cs2)c2ccc(-c3cnc(C)nc3)cc12 [Compound 453, (2S,4R)-1-(2-(3-Acetyl-5-(2-methylpyrimidin-5-yl)-1H-indazol-1-yl)acetyl)-N-(4-(2-chlorophenyl)thiazol-2-yl)-4-fluoropyrrolidine-2-carboxamide]
Second: CC(=O)c1nn(CC(=O)N2C[C@H](F)C[C@H]2C(=O)NC2C[C@H]2c2ccccc2Cl)c2ccc(-c3cnc(C)nc3)cc12 (stereo partly drawn) [Compound 460, (2S,4R)-1-(2-(3-acetyl-5-(2-methylpyrimidin-5-yl)-1H-indazol-1-yl)acetyl)-N-((2S)-2-(2-chlorophenyl)cyclopropyl)-4-fluoropyrrolidine-2-carboxamide]
The IC50 of the first is higher: greater than 10000 nM for the first, less than 1000 nM for the second.

Going from `Cc1cccc(C[C@H](O)[C@@H]2C[C@@H](F)CN2C(=O)Cn2cc(C(N)=O)c3cc(-c4cnc(C)nc4)ccc32)n1` [Compound 455, 1-(2-((2S,4R)-4-fluoro-2-((S)-1-hydroxy-2-(6-methylpyridin-2-yl)ethyl)pyrrolidin-1-yl)-2-oxoethyl)-5-(2-methylpyrimidin-5-yl)-1H-indole-3-carboxamide] to `CC(=O)c1nn(CC(=O)N2C[C@H](F)C[C@H]2C(=O)NCC2CC2(Cl)Cl)c2ccc(-c3cnc(C)nc3)cc12` (stereo partly drawn) [Compound 459, (2S,4R)-1-(2-(3-acetyl-5-(2-methylpyrimidin-5-yl)-1H-indazol-1-yl)acetyl)-N-((2,2-dichlorocyclopropyl)methyl)-4-fluoropyrrolidine-2-carboxamide], the IC50 falls from greater than 10000 nM to less than 1000 nM.

Source: patent US10287301B2 (Achillion Pharmaceuticals, Inc., priority 2015, dated 2019)
